Experimental findings from the Kinase Knowledgebase extract (Sharma et al. 2016) are described below.

In this assay the target is ROCK2 (human) (UniProt O75116). The experiment in a line: Assessment of ROCK2 Kinase Activity.
Sequence of ROCK2 (human) (O75116 whole entry, looked up): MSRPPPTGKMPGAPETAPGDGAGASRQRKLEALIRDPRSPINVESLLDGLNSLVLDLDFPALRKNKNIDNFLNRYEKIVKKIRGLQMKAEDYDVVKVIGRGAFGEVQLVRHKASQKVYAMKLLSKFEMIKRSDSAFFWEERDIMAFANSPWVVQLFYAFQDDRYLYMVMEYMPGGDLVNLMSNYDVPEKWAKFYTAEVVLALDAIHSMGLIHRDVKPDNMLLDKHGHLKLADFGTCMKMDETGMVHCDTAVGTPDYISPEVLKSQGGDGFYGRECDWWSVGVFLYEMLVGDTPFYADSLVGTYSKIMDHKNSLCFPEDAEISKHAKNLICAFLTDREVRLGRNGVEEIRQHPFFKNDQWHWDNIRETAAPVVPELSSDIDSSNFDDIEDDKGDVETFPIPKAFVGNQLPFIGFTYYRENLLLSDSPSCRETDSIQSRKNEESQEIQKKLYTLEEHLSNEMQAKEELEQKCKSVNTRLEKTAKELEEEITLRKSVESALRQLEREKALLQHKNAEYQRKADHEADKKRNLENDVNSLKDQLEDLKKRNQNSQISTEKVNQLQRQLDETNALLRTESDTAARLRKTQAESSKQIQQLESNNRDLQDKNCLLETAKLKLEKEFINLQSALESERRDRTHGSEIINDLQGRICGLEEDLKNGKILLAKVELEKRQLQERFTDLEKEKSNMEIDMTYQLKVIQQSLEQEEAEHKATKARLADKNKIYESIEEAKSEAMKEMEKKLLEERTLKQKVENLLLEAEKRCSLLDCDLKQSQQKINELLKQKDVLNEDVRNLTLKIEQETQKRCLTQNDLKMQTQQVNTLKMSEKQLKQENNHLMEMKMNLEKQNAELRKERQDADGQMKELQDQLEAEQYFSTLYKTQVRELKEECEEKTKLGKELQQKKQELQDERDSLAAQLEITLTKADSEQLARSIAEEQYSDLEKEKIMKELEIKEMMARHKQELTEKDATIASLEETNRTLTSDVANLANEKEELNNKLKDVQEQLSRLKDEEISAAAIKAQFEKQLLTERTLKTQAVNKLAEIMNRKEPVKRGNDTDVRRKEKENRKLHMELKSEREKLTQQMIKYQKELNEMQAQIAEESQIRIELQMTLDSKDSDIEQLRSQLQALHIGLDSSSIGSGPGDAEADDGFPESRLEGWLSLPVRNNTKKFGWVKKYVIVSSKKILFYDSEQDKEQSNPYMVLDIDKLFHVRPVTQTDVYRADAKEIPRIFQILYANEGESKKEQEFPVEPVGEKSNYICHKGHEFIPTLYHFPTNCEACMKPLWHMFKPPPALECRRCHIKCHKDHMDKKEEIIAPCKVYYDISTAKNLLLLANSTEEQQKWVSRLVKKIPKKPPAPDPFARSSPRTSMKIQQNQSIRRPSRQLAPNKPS
As a reminder, the IC50 is the point on the concentration scale where inhibition reaches its midpoint. Higher therefore signals a need for much substance. For `COc1cccc(CN(C(=O)c2cc3ccc(-c4cn[nH]c4)nc3[nH]2)C2CC2)c1`, the IC50 was < 100 nM.

Turning to `COc1cccc(CNC(=O)c2cc3ccc(-c4cn[nH]c4)cc3n2CCCO)c1`, the IC50 was < 100 nM.

On to `COc1cccc(CNC(=O)c2[nH]c3cc(-c4cn[nH]c4)ccc3c2CN2CCN(C)CC2)c1`, for which the IC50 was < 100 nM.

As for `COc1cccc(CNC(=O)c2[nH]c3cc(-c4cn[nH]c4)ccc3c2CN2CCCC2c2ccccc2)c1` (configuration not stated), the IC50 was in the range of 100 to 1000 nM.

As for `COc1cccc(CN(C)C(=O)c2n[nH]c3cc(-c4cn[nH]c4)ccc23)c1`, the IC50 was < 100 nM.

As for `COc1cccc(CCNC(=O)c2n[nH]c3cc(-c4cn[nH]c4)ccc23)c1`, the IC50 is < 100 nM.

As to `COc1cccc(CN(C)C(=O)c2cc3ccc(-c4cn[nH]c4)nc3[nH]2)c1`, the IC50 is < 100 nM.

With `COc1cccc(CCNC(=O)c2cn(CCN(C)C)c3cc(-c4cn[nH]c4)ccc23)c1`, the IC50 lay within 100 to 1000 nM.

Turning to `COc1cccc(CNC(=O)c2cc3ccc(-c4cn[nH]c4)nc3[nH]2)c1`, the IC50 is < 100 nM.

Turning to `COc1cccc(CNC(=O)c2n[nH]c3cc(-c4cn[nH]c4)ccc23)c1`, the IC50 was < 100 nM.

As for `COc1ccccc1CNC(=O)c1n[nH]c2cc(-c3cn[nH]c3)ccc12`, the IC50 is < 100 nM.

For `COc1cccc(CNC(=O)c2cn(C)c3cc(-c4cn[nH]c4)ccc23)c1`, the IC50 is < 100 nM.

The molecule `COc1ccc2c(c1)CC(c1cc(=O)n3cc(-c4ccncc4)ccc3n1)CO2` (configuration not stated) returned an IC50 of 100 to 1000 nM.

As for `COc1ccc2c(c1)CC(c1cc(=O)n3cc(-c4cn[nH]c4)ccc3n1)CO2` (configuration not stated), the IC50 is < 100 nM.

In the case of `COc1cccc(CNC(=O)c2nn(CCN(C)C)c3cc(-c4cn[nH]c4)ccc23)c1`, the IC50 was < 100 nM.

Take `COc1cccc(CN(CC2CC2)C(=O)c2n[nH]c3cc(-c4cn[nH]c4)ccc23)c1`: the IC50 was < 100 nM.

On to `COc1cccc(CNC(=O)c2cn(-c3cccc(C(F)(F)F)c3)c3cc(-c4cn[nH]c4)ccc23)c1`, for which the IC50 fell in the range of 100 to 1000 nM.

`COc1cccc(CN(CCCN2CCN(C)CC2)C(=O)c2cc3ccc(-c4cn[nH]c4)nc3[nH]2)c1`: the IC50 is < 100 nM.

For the molecule `Cc1ccccc1CNC(=O)c1n[nH]c2cc(-c3cn[nH]c3)ccc12`, the IC50 was < 100 nM.

As for `O=C(NCc1ccccc1)c1cnc2cc(-c3cn[nH]c3)ccn12`, the IC50 was < 100 nM.

As to `COc1cccc(CN(CCN(C)C)C(=O)c2cn3cc(-c4cn[nH]c4)ccc3n2)c1`, the IC50 was < 100 nM.

For `COc1cccc(CNC(=O)c2nn(C)c3cc(-c4cn[nH]c4)ccc23)c1`, the IC50 is < 100 nM.

The molecule `COc1cccc(CNC(=O)c2c3ccc(-c4ccnc(N)n4)cc3nn2CC2CC2)c1` had an IC50 of 100 to 1000 nM.

For `O=C(NCC1CCCCC1)c1c[nH]c2cc(-c3cn[nH]c3)ccc12`, the IC50 is < 100 nM.

Take `COc1cccc(CN(CCN(C)C)C(=O)c2cnc3cc(-c4cn[nH]c4)ccn23)c1`: the IC50 was < 100 nM.

With `COc1cccc(CNC(=O)c2cc3ccc(-c4c[nH]nc4C)nc3[nH]2)c1`, the IC50 is < 100 nM.

`COc1ccc(CNC(=O)c2c[nH]c3cc(-c4cn[nH]c4)ccc23)cc1` gave an IC50 of 100 to 1000 nM.

Turning to `COc1cccc(CN(CCN2CCCC2)C(=O)c2cc3ccc(-c4cn[nH]c4)cc3[nH]2)c1`, the IC50 is < 100 nM.

As for `COc1cccc(CNC(=O)c2nn(CC3CC3)c3cc(-c4ccnc(N)n4)ccc23)c1`, the IC50 was < 100 nM.

For the molecule `COc1cccc(CNC(=O)c2cc3ccc(-c4cn[nH]c4)nc3n2CCCO)c1`, the IC50 was < 100 nM.

`COc1cccc(CNC(=O)c2cc3ccc(-c4cn[nH]c4)nc3n2C)c1`: the IC50 was < 100 nM.

Molecule `COc1cccc(CNC(=O)c2cn3cc(-c4cn[nH]c4)ccc3n2)c1` displayed an IC50 of 100 to 1000 nM.

For the molecule `COc1cccc(CN(CCCN(C)C)C(=O)c2cn(C)c3cc(-c4cn[nH]c4)ccc23)c1`, the IC50 was < 100 nM.

Regarding `COc1cccc(CN(CCN(C)C)C(=O)c2n[nH]c3cc(-c4cn[nH]c4)ccc23)c1`, the IC50 was < 100 nM.

Consider `COc1cccc(CNC(=O)c2cc3ccc(-c4cn[nH]c4)cc3[nH]2)c1`, for which the IC50 is < 100 nM.

As for `COc1cccc(CNC(=O)c2c3ccc(-c4cn[nH]c4)cc3nn2CC2CC2)c1`, the IC50 is 100 to 1000 nM.

Consider `CCCn1nc(C(=O)NCc2cccc(OC)c2)c2ccc(-c3cn[nH]c3)cc21`, for which the IC50 is < 100 nM.

As for `COc1cccc(CNC(=O)c2cn3cc(-c4ccnc(N)n4)ccc3n2)c1`, the IC50 is 100 to 1000 nM.

As for `COc1cccc(CN(CCN(C)C)C(=O)c2cc3ccc(-c4cn[nH]c4)nc3[nH]2)c1`, the IC50 is < 100 nM.

In the case of `COc1cccc(CN(CCN2CCCC2)C(=O)c2cc3ccc(-c4cn[nH]c4)nc3[nH]2)c1`, the IC50 is < 100 nM.

For `COc1cccc(CNC(=O)c2c[nH]c3cc(-c4cn[nH]c4)ccc23)c1`, the IC50 was < 100 nM.

`COc1cccc(CNC(=O)c2cnc3cc(-c4cn[nH]c4)ccn23)c1`: the IC50 is < 100 nM.

As to `COc1ccccc1CNC(=O)c1cn(CCCO)c2cc(-c3cn[nH]c3)ccc12`, the IC50 was < 100 nM.

With `COc1cccc(CNC(=O)c2nn(CCN(C)C)c3cc(-c4ccncc4)ccc23)c1`, the IC50 was < 100 nM.

`COc1cccc(CN(C)C(=O)c2cn(CCCO)c3cc(-c4cn[nH]c4)ccc23)c1`: the IC50 was < 100 nM.

For `O=C(NCCc1cccnc1)c1c[nH]c2cc(-c3cn[nH]c3)ccc12`, the IC50 was 100 to 1000 nM.

Turning to `COc1cccc(CN(C)C(=O)c2cc3ccc(-c4cn[nH]c4)cc3[nH]2)c1`, the IC50 was < 100 nM.

Consider `COc1cccc(CNC(=O)c2cc3ccc(-c4cn[nH]c4)nc3n2CCN2CCCC2)c1`, for which the IC50 is < 100 nM.

Take `COc1cccc(CN(CCN(C)C)C(=O)c2nn(CC3CC3)c3cc(-c4cn[nH]c4)ccc23)c1`: the IC50 was < 100 nM.

Consider `COc1cccc(CNC(=O)c2cn(CCN3CCCC3)c3cc(-c4cn[nH]c4)ccc23)c1`, for which the IC50 was < 100 nM.

As for `COc1cccc([C@@H](C)NC(=O)c2cn(CCN3CCCC3)c3cc(-c4cn[nH]c4)ccc23)c1`, the IC50 was < 100 nM.

For the molecule `COc1cccc(CNC(=O)c2[nH]c3cc(-c4cn[nH]c4)ccc3c2CN(C)Cc2ccccc2)c1`, the 50% inhibitory concentration (IC50) is 100 to 1000 nM.
